According to ChEMBL document CHEMBL1201862, “PubChem BioAssay data set” (2004):
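Test compounds were applied to cells in 96-well plates for 48 hours at 5 doses. At the GI50, growth is halved.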 Active and inactive are the calls of the source. Cut-off read from the data, not from the text of the source: active = GI50 up to about 1.1 µM and inactive = higher.

Tests used:
Assay in all cases: DTP human tumour cell line panel, 48 h
NCI-H460 = tested on: NCI-H460
K562 = tested on: K562
U-251 = tested on: U-251
BT-549 = tested on: BT-549
IGROV-1 = tested on: IGROV-1
TK-10 = tested on: TK-10
HT-29 = tested on: HT-29
UACC-62 = tested on: UACC-62
HCC 2998 = tested on: HCC 2998
COLO 205 = tested on: COLO 205
RXF 393 = tested on: RXF 393
OVCAR-4 = tested on: OVCAR-4
OVCAR-3 = tested on: OVCAR-3
SK-MEL-2 = tested on: SK-MEL-2
MCF7 = tested on: MCF7
HOP-92 = tested on: HOP-92
OVCAR-8 = tested on: OVCAR-8
SNB-19 = tested on: SNB-19
EKVX = tested on: EKVX
SF-268 = tested on: SF-268
HCT-116 = tested on: HCT-116
SF-295 = tested on: SF-295
MDA-MB-435 = tested on: MDA-MB-435
SK-MEL-5 = tested on: SK-MEL-5
Malme-3M = tested on: Malme-3M
NCI-H23 = tested on: NCI-H23
NCI/ADR-RES = tested on: NCI/ADR-RES
UO-31 = tested on: UO-31
ACHN = tested on: ACHN
M14 = tested on: M14
A549 = tested on: A549
MOLT-4 = tested on: MOLT-4
MDA-MB-231 = tested on: MDA-MB-231
CCRF-CEM = tested on: CCRF-CEM
SW-620 = tested on: SW-620
KM12 = tested on: KM12
SNB-75 = tested on: SNB-75
786-0 = tested on: 786-0
NCI-H522 = tested on: NCI-H522
OVCAR-5 = tested on: OVCAR-5
UACC-257 = tested on: UACC-257
SN12C = tested on: SN12C
DU-145 = tested on: DU-145
T47D = tested on: T47D
LOX IMVI = tested on: LOX IMVI
MDA-N = tested on: MDA-N
SK-MEL-28 = tested on: SK-MEL-28
PC-3 = tested on: PC-3
HOP-62 = tested on: HOP-62
HL-60 = tested on: HL-60
CAKI-1 = tested on: CAKI-1
SK-OV-3 = tested on: SK-OV-3
RPMI-8226 = tested on: RPMI-8226
HCT-15 = tested on: HCT-15
Hs-578T = tested on: Hs-578T
A498 = tested on: A498
SF-539 = tested on: SF-539
NCI-H226 = tested on: NCI-H226

COc1cc(/C=C2\N=C(c3ccccc3)N(c3nc4ccc(Sc5ccccc5)cc4[nH]3)C2=O)cc(OC)c1OC
GI50 (NCI-H460): 21.6 µM (inactive) | GI50 (K562): 13.2 µM (inactive) | GI50 (U-251): 18.3 µM (inactive) | GI50 (BT-549): 20.8 µM (inactive) | GI50 (IGROV-1): 45.4 µM (inactive) | GI50 (TK-10): 24.6 µM (inactive) | GI50 (HT-29): 21.4 µM (inactive) | GI50 (UACC-62): 15.4 µM (inactive) | GI50 (HCC 2998): 16.5 µM (inactive) | GI50 (COLO 205): 18.9 µM (inactive) | GI50 (RXF 393): 22.1 µM (inactive) | GI50 (OVCAR-4): 41.1 µM (inactive) | GI50 (OVCAR-3): 22.6 µM (inactive) | GI50 (SK-MEL-2): 15.4 µM (inactive) | GI50 (MCF7): 17.8 µM (inactive) | GI50 (HOP-92): 58.6 µM (inactive) | GI50 (OVCAR-8): 32.7 µM (inactive) | GI50 (SNB-19): 33.6 µM (inactive) | GI50 (EKVX): 38.7 µM (inactive) | GI50 (SF-268): 26.2 µM (inactive) | GI50 (HCT-116): 20.7 µM (inactive) | GI50 (SF-295): 23.6 µM (inactive) | GI50 (MDA-MB-435): 5.19 µM (inactive) | GI50 (SK-MEL-5): 13.2 µM (inactive) | GI50 (Malme-3M): 16.9 µM (inactive) | GI50 (NCI-H23): 27 µM (inactive) | GI50 (NCI/ADR-RES): 20.4 µM (inactive) | GI50 (UO-31): 34.4 µM (inactive) | GI50 (ACHN): 22.9 µM (inactive) | GI50 (M14): 19.3 µM (inactive) | GI50 (A549): 34.3 µM (inactive) | GI50 (MOLT-4): 26.8 µM (inactive) | GI50 (MDA-MB-231): 20.6 µM (inactive) | GI50 (CCRF-CEM): 27.1 µM (inactive) | GI50 (SW-620): 25 µM (inactive) | GI50 (KM12): 17.6 µM (inactive) | GI50 (SNB-75): 17.4 µM (inactive) | GI50 (786-0): 20.4 µM (inactive) | GI50 (NCI-H522): 18.1 µM (inactive) | GI50 (OVCAR-5): 33.7 µM (inactive) | GI50 (UACC-257): 19.6 µM (inactive) | GI50 (SN12C): 27.9 µM (inactive) | GI50 (DU-145): 21.8 µM (inactive) | GI50 (T47D): 17.9 µM (inactive) | GI50 (LOX IMVI): 23.3 µM (inactive) | GI50 (MDA-N): 4.76 µM (inactive) | GI50 (SK-MEL-28): 24 µM (inactive) | GI50 (PC-3): 26.9 µM (inactive) | GI50 (HOP-62): 31.5 µM (inactive) | GI50 (HL-60): 14.7 µM (inactive) | GI50 (CAKI-1): 31.1 µM (inactive) | GI50 (SK-OV-3): 30.1 µM (inactive) | GI50 (RPMI-8226): 20.1 µM (inactive) | GI50 (HCT-15): 21.1 µM | GI50 (Hs-578T): 30.8 µM (inactive) | GI50 (A498): 22 µM (inactive)

CN(C)CC(O)CNC(=O)Nc1ccccc1 (stereo unspecified)
GI50 (NCI-H460): > 100 µM (inactive) | GI50 (K562): > 100 µM (inactive) | GI50 (U-251): > 100 µM (inactive) | GI50 (BT-549): > 100 µM (inactive) | GI50 (IGROV-1): > 100 µM (inactive) | GI50 (TK-10): > 100 µM (inactive) | GI50 (HT-29): > 100 µM (inactive) | GI50 (UACC-62): > 100 µM (inactive) | GI50 (HCC 2998): > 100 µM (inactive) | GI50 (COLO 205): > 100 µM (inactive) | GI50 (RXF 393): > 100 µM (inactive) | GI50 (OVCAR-4): > 100 µM (inactive) | GI50 (OVCAR-3): > 100 µM (inactive) | GI50 (SK-MEL-2): > 100 µM (inactive) | GI50 (SF-539): > 100 µM (inactive) | GI50 (MCF7): > 100 µM (inactive) | GI50 (HOP-92): > 100 µM (inactive) | GI50 (OVCAR-8): > 100 µM (inactive) | GI50 (SNB-19): > 100 µM (inactive) | GI50 (EKVX): > 100 µM (inactive) | GI50 (SF-268): > 100 µM (inactive) | GI50 (HCT-116): > 100 µM (inactive) | GI50 (SF-295): > 100 µM (inactive) | GI50 (MDA-MB-435): > 100 µM (inactive) | GI50 (SK-MEL-5): > 100 µM (inactive) | GI50 (Malme-3M): > 100 µM (inactive) | GI50 (NCI-H23): > 100 µM (inactive) | GI50 (NCI/ADR-RES): > 100 µM (inactive) | GI50 (UO-31): > 100 µM (inactive) | GI50 (ACHN): > 100 µM (inactive) | GI50 (M14): > 100 µM (inactive) | GI50 (A549): > 100 µM (inactive) | GI50 (MDA-MB-231): > 100 µM (inactive) | GI50 (CCRF-CEM): > 100 µM (inactive) | GI50 (SW-620): > 100 µM (inactive) | GI50 (KM12): > 100 µM (inactive) | GI50 (SNB-75): > 100 µM (inactive) | GI50 (786-0): > 100 µM (inactive) | GI50 (NCI-H226): > 100 µM (inactive) | GI50 (OVCAR-5): > 100 µM (inactive) | GI50 (UACC-257): > 100 µM (inactive) | GI50 (SN12C): > 100 µM (inactive) | GI50 (DU-145): > 100 µM (inactive) | GI50 (T47D): > 100 µM (inactive) | GI50 (LOX IMVI): > 100 µM (inactive) | GI50 (MDA-N): > 100 µM (inactive) | GI50 (SK-MEL-28): > 100 µM (inactive) | GI50 (PC-3): > 100 µM (inactive) | GI50 (HOP-62): > 100 µM (inactive) | GI50 (HL-60): > 100 µM (inactive) | GI50 (CAKI-1): > 100 µM (inactive) | GI50 (SK-OV-3): > 100 µM (inactive) | GI50 (RPMI-8226): > 100 µM (inactive) | GI50 (HCT-15): > 100 µM | GI50 (Hs-578T): > 100 µM (inactive) | GI50 (A498): > 100 µM (inactive)

N=C(N)NCC[C@H](NC(=O)OCCCCCn1ccc(=O)[nH]c1=O)C(=O)O
GI50 (NCI-H460): > 100 µM (inactive) | GI50 (K562): > 100 µM (inactive) | GI50 (U-251): > 100 µM (inactive) | GI50 (BT-549): > 100 µM (inactive) | GI50 (TK-10): > 100 µM (inactive) | GI50 (HT-29): > 100 µM (inactive) | GI50 (UACC-62): > 100 µM (inactive) | GI50 (HCC 2998): > 100 µM (inactive) | GI50 (COLO 205): > 100 µM (inactive) | GI50 (RXF 393): > 100 µM (inactive) | GI50 (OVCAR-4): > 100 µM (inactive) | GI50 (OVCAR-3): > 100 µM (inactive) | GI50 (SK-MEL-2): > 100 µM (inactive) | GI50 (SF-539): > 100 µM (inactive) | GI50 (MCF7): > 100 µM (inactive) | GI50 (HOP-92): > 100 µM (inactive) | GI50 (OVCAR-8): > 100 µM (inactive) | GI50 (SNB-19): > 100 µM (inactive) | GI50 (EKVX): > 100 µM (inactive) | GI50 (SF-268): > 100 µM (inactive) | GI50 (HCT-116): > 100 µM (inactive) | GI50 (SF-295): > 100 µM (inactive) | GI50 (MDA-MB-435): > 100 µM (inactive) | GI50 (SK-MEL-5): > 100 µM (inactive) | GI50 (Malme-3M): > 100 µM (inactive) | GI50 (NCI-H23): > 100 µM (inactive) | GI50 (NCI/ADR-RES): > 100 µM (inactive) | GI50 (UO-31): > 100 µM (inactive) | GI50 (ACHN): > 100 µM (inactive) | GI50 (A549): > 100 µM (inactive) | GI50 (MOLT-4): > 100 µM (inactive) | GI50 (MDA-MB-231): > 100 µM (inactive) | GI50 (CCRF-CEM): > 100 µM (inactive) | GI50 (SW-620): > 100 µM (inactive) | GI50 (KM12): > 100 µM (inactive) | GI50 (SNB-75): 41.4 µM (inactive) | GI50 (786-0): > 100 µM (inactive) | GI50 (NCI-H226): > 100 µM (inactive) | GI50 (OVCAR-5): > 100 µM (inactive) | GI50 (UACC-257): > 100 µM (inactive) | GI50 (SN12C): > 100 µM (inactive) | GI50 (DU-145): > 100 µM (inactive) | GI50 (T47D): > 100 µM (inactive) | GI50 (LOX IMVI): > 100 µM (inactive) | GI50 (MDA-N): > 100 µM (inactive) | GI50 (SK-MEL-28): > 100 µM (inactive) | GI50 (PC-3): > 100 µM (inactive) | GI50 (HOP-62): > 100 µM (inactive) | GI50 (HL-60): > 100 µM (inactive) | GI50 (CAKI-1): > 100 µM (inactive) | GI50 (SK-OV-3): > 100 µM (inactive) | GI50 (RPMI-8226): > 100 µM (inactive) | GI50 (HCT-15): > 100 µM | GI50 (Hs-578T): > 100 µM (inactive)
